pIC50: −log10 of the molar value.
Columns and labels:
Aurora B = Aurora B (Homo sapiens, UniProt Q96GD4); assay: Aurora B enzyme assay (Caliper); format: biochemical
Protocol: (§1) The Aurora and other kinase assays described here were performed on two Caliper Life Sciences systems, the LC3000 and the Desktop Profiler. These provide data on enzyme activity via measurement of the relative amounts of phosphorylated or unphosphorylated fluorescently labelled substrate peptide at the end of an enzymatic reaction. These different states of peptide are resolved by applying a potential difference across the sample. The presence of a charged phosphate group on the product (as opposed to the substrate) causes a different peptide mobility between the two peptides. This is visualized by excitation of a fluorescent label on the substrate and product peptides and represented as peaks within the analysis software.

Aurora A = target: T1, Aurora A (Homo sapiens, UniProt O14965); assay: Aurora A enzyme assay (Caliper LC3000 mobility shift); format: biochemical
T1 construct: N-terminal GST fusion with full length Aurora A (1-403 amino acids); purchased Carna Biosciences 05-101
T1 sequence (O14965 1-403): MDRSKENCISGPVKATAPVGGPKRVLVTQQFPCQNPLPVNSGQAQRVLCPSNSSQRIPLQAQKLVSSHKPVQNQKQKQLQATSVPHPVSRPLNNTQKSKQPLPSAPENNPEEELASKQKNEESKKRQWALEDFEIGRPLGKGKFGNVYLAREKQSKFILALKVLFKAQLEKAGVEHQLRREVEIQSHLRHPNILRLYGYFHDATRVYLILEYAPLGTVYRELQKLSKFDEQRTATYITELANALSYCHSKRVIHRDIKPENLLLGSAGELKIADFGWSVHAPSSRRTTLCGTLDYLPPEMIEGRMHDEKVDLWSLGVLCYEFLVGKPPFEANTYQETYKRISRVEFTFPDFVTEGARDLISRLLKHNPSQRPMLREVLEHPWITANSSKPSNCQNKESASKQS
Protocol: as §1
For example, in order to measure inhibitor activity of Aurora A inhibitors in the Caliper Life Sciences LC3000, a TTP Mosquito liquid handling instrument was used to place […] of an appropriate concentration of inhibitor in 100% DMSO (for a dose response curve calculation) into each well of a 384-well plate. To this reaction components were added to a final volume of 25 μl: • 0.067 ng/μl GST-Aurora A (Carna Biosciences 05-101. N-terminal GST fusion with full length Aurora A (1-403 amino acids), accession number NP_940835.1). • 15 μM ATP (Fluka, 02055) • 1 mM DTT (Sigma, D0632) • 1 mM MgC12 (Sigma, M1028) • 1 μM substrate peptide (sequence FITC-LRRASLG-(CONH2), synthesized by Tufts Peptide Synthesis service. • 100 mM HEPES pH 7.5 (Calbiochem, 391338) • 0.015% Brij-35 (Sigma, B4184)
The reaction was incubated for 90 min at 25° C., and then stopped by the addition of 70 μl of Stop buffer (100 mM HEPES pH 7.5, 0.015% Brij-35, 10 mM EDTA (Sigma, E7889)).
The plate was read on a Caliper LC 3000 in an Off-Chip mobility shift assay format, using the following parameters for a 12-sipper chip: screening pressure −1.8 psi, upstream voltage −2700, downstream voltage −1000. These conditions cause unphosphorylated substrate and phosphorylated product peptide to resolve as separate peaks allowing direct measurement of percentage of conversion of substrate to product. The percent conversion was plotted against concentration of inhibitor to produce a sigmoidal dose response curve, from which an IC50 was calculated using XLFit for Microsoft Excel.

[1] = target: kinases (not incl. Aurora); assay: Kinase inhibition profile (not incl. Aurora); format: biochemical; details: hit means >79% inhibition
Protocol: as §1
The Desktop Profiler utilizes the same principal as the LC 3000 for calculating percentage conversion of a substrate to product. Caliper Life Sciences provided proprietary flash frozen pre-made 384 well plates containing selected kinases. Each column in the 384 well plate contained a particular selected kinase. A second plate, the ‘substrate plate’ contained a mix of fluorescently labeled peptide substrate and ATP. These were arranged in columns so that transfer for substrate plate to enzyme plate provided the correct enzyme with the correct substrate/ATP concentration.
Compounds were added to a thawed enzyme plate in the desired format, in single concentrations. Reactions were initiated by transfer of the ubstrate/ATP mix from the substrate plate. The enzyme plate was incubated for 90 mins at 25 °C. The reaction was stopped by addition of […] of Stop Buffer (100 mM HEPES pH 7.5, 0.015% Brij-35, 10 mM EDTA (Sigma, E7889)).
Plates were read in a manner identical to that of the LC3000, and the ratio between substrate and product peaks provided the activity of the enzyme in that well. This was best represented by a plate heat map which colors each well by percent inhibition as compared to positive and negative controls (no inhibitors and no ATP respectively).

MiaPaca2 = assay: Cellular activity MiaPaca2; format: cell-based; details: for pIC50: Homo sapiens, MIA PaCa-2
Protocol: (§2) The susceptibility of a particular cell to treatment with the compounds according to the invention was determined by in vitro tests. Typically, a culture of the cell was combined with a compound according to the invention at various concentrations for a period of time that was sufficient to allow the active agents to induce cell death or to inhibit migration, usually between about one hour and one week. In vitro testing was carried out using cultivated cells from a biopsy sample. The viable cells remaining after the treatment then were counted.

A549 = assay: Cellular activity A549; format: cell-based; details: Homo sapiens
Protocol: as §2

Sequence of Aurora B (Q96GD4 whole entry): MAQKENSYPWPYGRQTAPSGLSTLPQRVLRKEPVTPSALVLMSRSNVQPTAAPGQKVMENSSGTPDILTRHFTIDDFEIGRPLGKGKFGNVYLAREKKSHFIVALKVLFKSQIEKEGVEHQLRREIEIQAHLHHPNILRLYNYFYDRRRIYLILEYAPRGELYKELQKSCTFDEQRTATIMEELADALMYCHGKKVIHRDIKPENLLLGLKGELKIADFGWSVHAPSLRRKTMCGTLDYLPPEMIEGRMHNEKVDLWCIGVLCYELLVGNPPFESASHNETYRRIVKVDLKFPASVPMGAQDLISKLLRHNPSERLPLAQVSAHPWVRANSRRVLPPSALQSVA

Row | SMILES | pIC50 (Aurora B) | pIC50 (Aurora A) | Kinase Inhibition Profile (not incl. Aurora) # kinases hit/# kinases tested ([1]; at 1 μM) | Kinase Inhibition Profile (not incl. Aurora) # kinases hit/# kinases tested ([1]; at 10 μM) | Cellular Activity MiaPaca2 IC50 (nM) (MiaPaca2; MiaPaca2) | pIC50 (A549) | pIC50 (MiaPaca2)
1 | C=CC1CC2/C=C/COc3cccc(c3)Nc3ncc(F)c(n3)N[C@H]2[C@H]1C(N)=O (stereo partly drawn) | 6.00 to 7.00 | 6.00 to 7.00 | 0/36 | 12/255 | – | – | –
2 | C=CC1CC2/C=C\COc3cccc(c3)Nc3ncc(F)c(n3)N[C@H]2[C@H]1C(N)=O (stereo partly drawn) | 7.00 to 9.00 | 7.00 to 9.00 | 0/36 at 1 uM | – | – | – | –
3 | CCC1CC2/C=C\COc3cccc(c3)Nc3ncc(F)c(n3)N[C@H]2[C@H]1C(N)=O (stereo partly drawn) | 7.00 to 9.00 | 7.00 to 9.00 | 1/36 at 1 uM | – | – | – | –
4 | CCC1CC2CCCOc3cccc(c3)Nc3ncc(F)c(n3)N[C@H]2[C@H]1C(N)=O (stereo partly drawn) | 6.00 to 7.00 | 6.00 to 7.00 | 0/36 at 1 uM | – | – | – | –
5 | NC(=O)[C@H]1[C@H]2C[C@H]3[C@H]1Nc1nc(ncc1F)Nc1cccc(c1)[C@H](OCCCN1CCOCC1)CS[C@@H]3C2 | 6.00 to 7.00 | 6.00 to 7.00 | – | – | +++= | 5.20 to 6.00 | –
6 | NC(=O)[C@H]1[C@H]2C[C@H]3[C@H]1Nc1nc(ncc1F)Nc1ccc4c(c1)CN(CC4)C(=O)CS[C@@H]3C2 | 7.00 to 9.00 | 7.00 to 9.00 | – | – | – | 5.20 to 6.00 | 5.20 to 6.00
7 | NC(=O)[C@H]1[C@H]2C[C@H]3[C@H]1Nc1nc(ncc1F)Nc1ccc4c(c1)N(CC4)C(=O)CS[C@@H]3C2 | 6.00 to 7.00 | 7.00 to 9.00 | – | – | – | < 5.20 | < 5.20
8 | NC(=O)[C@H]1[C@H]2C[C@H]3[C@H]1Nc1nc(ncc1F)Nc1cccc(c1)[C@H](O)CS[C@@H]3C2 | 7.00 to 9.00 | 7.00 to 9.00 | 0/76 at 1 μM | – | – | 6.00 to 7.00 | 6.00 to 7.00
9 | NC(=O)[C@H]1[C@H]2C[C@H]3[C@H]1Nc1nc(ncc1F)Nc1cccc(c1)[C@@H](O)CS[C@@H]3C2 | 7.00 to 9.00 | 7.00 to 9.00 | – | – | – | 6.00 to 7.00 | 6.00 to 7.00
10 | CN1CCN(c2ccc3cc2[C@@H](O)CS[C@@H]2C[C@@H]4C[C@H]2[C@@H](Nc2nc(ncc2F)N3)[C@H]4C(N)=O)CC1 | 7.00 to 9.00 | 7.00 to 9.00 | 121/267 at 1 μM | – | – | 7.00 to 9.00 | 7.00 to 9.00
11 | CN1CCN(c2ccc3cc2[C@H](O)CS[C@@H]2C[C@@H]4C[C@H]2[C@@H](Nc2nc(ncc2F)N3)[C@H]4C(N)=O)CC1 | 7.00 to 9.00 | 7.00 to 9.00 | 121/267 at 1 μM | – | – | 7.00 to 9.00 | 7.00 to 9.00
12 | CN1CCN(c2ccc3cc2CC(=O)NC[C@@H]2C[C@@H]4C[C@H]2[C@@H](Nc2nc(ncc2F)N3)[C@H]4C(N)=O)CC1 | 5.20 to 6.00 | 6.00 to 7.00 | 0/73 at 1 μM | – | – | < 5.20 | 5.20 to 6.00
13 | CN1CCN(c2ccc3cc2C(=O)NC[C@@H]2C[C@@H]4C[C@H]2[C@@H](Nc2nc(ncc2F)N3)[C@H]4C(N)=O)CC1 | 6.00 to 7.00 | 6.00 to 7.00 | 0/73 at 1 μM | – | – | < 5.20 | 5.20 to 6.00
14 | CN1CCN(c2cc3cc(c2)C(=O)NC[C@@H]2C[C@@H]4C[C@H]2[C@@H](Nc2nc(ncc2F)N3)[C@H]4C(N)=O)CC1 | – | 7.00 to 9.00 | 14/264 at 1 μM | – | – | 5.20 to 6.00 | 6.00 to 7.00
15 | NC(=O)[C@H]1[C@@H]2C[C@H]3CNC(=O)Cn4cc(cn4)Nc4ncc(F)c(n4)N[C@@H]1[C@@H]3C2 | 7.00 to 9.00 | 7.00 to 9.00 | 2/73 at 1 μM | – | – | < 5.20 | 5.20 to 6.00
16 | NC(=O)[C@H]1[C@H]2C[C@H]3[C@H]1Nc1nc(ncc1F)Nc1cccc(c1)CSS[C@@H]3C2 [drawing 213] | 7.00 to 9.00 | 7.00 to 9.00 | – | – | – | 5.20 to 6.00 | 5.20 to 6.00
17 | NC(=O)[C@H]1[C@H]2C[C@H]3[C@H]1Nc1nc(ncc1F)Nc1cccc(c1)C(=O)CS[C@@H]3C2 [drawing 214] | 7.00 to 9.00 | 7.00 to 9.00 | 2/36 at 1 μM | – | – | 5.20 to 6.00 | 5.20 to 6.00
18 | O=C(O)[C@H]1[C@H]2C[C@H]3[C@H]1Nc1nc(ncc1F)Nc1cccc(c1)OCCS[C@@H]3C2 [drawing 218] | 7.00 to 9.00 | 7.00 to 9.00 | – | 8/36 at 10 μM | – | < 5.20 | < 5.20
19 | NC(=O)[C@H]1[C@H]2C[C@H]3[C@H]1Nc1nc(ncc1F)Nc1cccc(c1)OCCS[C@@H]3C2 [drawing 219] | 7.00 to 9.00 | 7.00 to 9.00 | 11/36 at 1 μM | – | – | 5.20 to 6.00 | 5.20 to 6.00
20 | CN1CCN(c2ccc3cc2OCCS[C@@H]2C[C@@H]4C[C@H]2[C@@H](Nc2nc(ncc2F)N3)[C@H]4C(N)=O)CC1 [drawing 220] | 7.00 to 9.00 | 7.00 to 9.00 | 12/51 at 1 μM | – | – | 6.00 to 7.00 | 6.00 to 7.00
21 | NC(=O)[C@H]1[C@H]2C[C@H]3[C@H]1Nc1nc(ncc1F)Nc1cccc(c1)NC(=O)CS[C@@H]3C2 [drawing 221] | 7.00 to 9.00 | 7.00 to 9.00 | 12/36 at 1 | – | – | 6.00 to 7.00 | 6.00 to 7.00
22 | CN1CCN(c2ccc3cc2NC(=O)CS[C@@H]2C[C@@H]4C[C@H]2[C@@H](Nc2nc(ncc2F)N3)[C@H]4C(N)=O)CC1 [drawing 222] | 7.00 to 9.00 | 7.00 to 9.00 | 13/36 at 1 μM | – | – | 6.00 to 7.00 | 6.00 to 7.00
23 | N#Cc1ccc2cc1NC(=O)CS[C@@H]1C[C@@H]3C[C@H]1[C@@H](Nc1nc(ncc1F)N2)[C@H]3C(N)=O [drawing 223] | 6.00 to 7.00 | 7.00 to 9.00 | 12/38 at 1 μM | – | – | < 5.20 | < 5.20
24 | NC(=O)[C@H]1[C@H]2C[C@H]3[C@H]1Nc1nc(ncc1F)Nc1cccc(c1)CCS[C@@H]3C2 [drawing 234] | 7.00 to 9.00 | 7.00 to 9.00 | – | – | – | 5.20 to 6.00 | 5.20 to 6.00
25 | NC(=O)[C@H]1[C@@H]2CC3CNC(=O)c4cccc(c4)Nc4ncc(F)c(n4)N[C@@H]1[C@@H]3C2 (stereo partly drawn) [drawing 254] | 7.00 to 9.00 | 7.00 to 9.00 | 1/76 at 1 μM | – | – | 5.20 to 6.00 | 5.20 to 6.00

Reference: patent US8815872B2, “Macrocyclics pyrimidines as aurora kinase inhibitors” (Merck Patent GmbH, priority 2008, dated 2014)
